Test results as given in patent publication US12427212B2, “Nectin-4 binding miniproteins, conjugates and uses thereof” (Aktis Oncology, Inc., priority 2023, dated 2025).
Where two headings read alike, the source gives them in different places. Bridges are numbered along the chain shown (N, C = ends). Primed or numbered codes have the meaning given here. [ ]: non-standard residue; d: D form. The star is where a group is joined. DOTA = O=C(O)CN1CCN(CC(=O)O)CCN(CC(=O)*)CCN(CC(=O)O)CC1; Lys(Me3) = C[N+](C)(C)CCCC[C@H](N)C(=O)O; Cit = NC(=O)NCCC[C@H](N)C(=O)O; PEG4 = NCCOCCOCCOCCOCCC(=O)O; PEG4′ = not defined here

Columns and labels:
[1] = biological target: T1, Nectin-4 (Homo sapiens, UniProt Q96NY8); assay: Surface plasmon resonance (Biacore), 1:1 binding model, human Nectin-4; details: SPR, 25° C.
T1 sequence (Q96NY8 32-510): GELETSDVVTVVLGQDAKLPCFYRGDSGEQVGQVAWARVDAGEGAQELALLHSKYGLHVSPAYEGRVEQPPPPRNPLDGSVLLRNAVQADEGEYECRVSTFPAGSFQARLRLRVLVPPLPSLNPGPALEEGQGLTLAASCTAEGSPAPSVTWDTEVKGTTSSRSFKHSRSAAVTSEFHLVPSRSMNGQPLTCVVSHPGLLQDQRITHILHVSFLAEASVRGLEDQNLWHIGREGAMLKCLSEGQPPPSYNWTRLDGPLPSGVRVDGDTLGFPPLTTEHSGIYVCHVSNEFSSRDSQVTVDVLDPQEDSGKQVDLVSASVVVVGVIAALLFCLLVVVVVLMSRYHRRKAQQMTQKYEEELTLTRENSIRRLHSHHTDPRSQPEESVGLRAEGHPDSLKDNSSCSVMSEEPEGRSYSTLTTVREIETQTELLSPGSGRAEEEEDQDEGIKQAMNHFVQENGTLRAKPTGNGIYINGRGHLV
Method: (§1) Peptide binding affinity to the target protein was measured by SPR using an SPR machine, such as a Biacore T200 instrument. The target protein was covalently coupled to a Biacore chip surface using free amine-coupling chemistry (NHS/EDC) and all uncoupled sites were blocked with ethanolamine. Free peptides were flowed over the target protein surface in increasing concentrations to measure association (Ka, 1/Ms^−1)) and dissociation (Kd, s^−1) to calculate the dissociation equilibrium constant (KD) using an appropriate binding model (see, e.g., Nikolas Stroth, J Biol Methods. 2016; 3 (1)).
(§2) In FIGS. 1A, 1B, 2A, and 2B, lines on graphs are labeled from top to bottom, beginning with letter “a.” and the corresponding concentration is noted to the right of the figure.
(§3) (i.e., a conjugate comprising a Nectin-4 peptide of SEQ ID NO: 5 and arranged having an N-terminus comprising ^138La-DOTA-PEG4 and a C-terminus comprising OH). […] In both FIGS. 3A and 3B, lines on graphs were labeled from top to bottom, beginning with letter a, and the corresponding concentration was noted to the right of the figure.

[2] = biological target: T2, mouse Nectin-4 (Mus musculus, UniProt Q8R007); assay: Surface plasmon resonance (Biacore), 1:1 binding model, mouse Nectin-4; details: SPR, 25° C.
T2 sequence (Q8R007 31-508): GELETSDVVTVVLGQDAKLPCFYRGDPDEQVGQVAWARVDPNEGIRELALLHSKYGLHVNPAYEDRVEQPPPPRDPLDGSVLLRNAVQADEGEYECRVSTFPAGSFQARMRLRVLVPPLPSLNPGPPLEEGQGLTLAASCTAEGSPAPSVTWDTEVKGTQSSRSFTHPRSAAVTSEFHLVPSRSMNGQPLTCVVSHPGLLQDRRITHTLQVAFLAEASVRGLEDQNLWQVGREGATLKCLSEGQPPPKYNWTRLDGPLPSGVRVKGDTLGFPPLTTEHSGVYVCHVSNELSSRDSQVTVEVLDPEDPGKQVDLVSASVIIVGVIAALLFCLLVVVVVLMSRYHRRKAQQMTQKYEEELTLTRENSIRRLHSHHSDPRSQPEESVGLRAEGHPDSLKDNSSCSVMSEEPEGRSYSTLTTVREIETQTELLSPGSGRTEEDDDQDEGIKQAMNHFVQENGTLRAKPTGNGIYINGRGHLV
Method: as §1, §2, §3

[3] = system: HT-1376 urothelial cancer cells; assay: In vitro cell cytotoxicity assay of 225Ac-radioconjugates (CellTiter-Glo); assay type: cell-based, human; details: compound radiolabeled with 225Ac, 24 h treatment, 4-5 day regrowth, HT-1376 cells
Method: Cytotoxicity to ^225Ac-radioconjugates was assessed in HT-1376 urothelial cancer cells. Cells were seeded in 96-well plates at densities of 250 to 1000 cells per well two days prior to treatment. On the day of treatment ^225Ac-radioconjugates were diluted in culture medium to concentrations ranging from 0,0001 to 100 μCi/mL and treatment solutions were incubated with cells for 24 h. At the end of the treatment period, the treatment solution was removed, and fresh culture medium was replenished for the regrowth period of the assay that lasted 4-5 day's. At the end of the regrowth period the culture medium was removed and viability was assessed by CellTiter-Glo (Promega, Waltham MA) luminescent assay and the plates were read on a Perkin Elmer Enspire multimode plate reader. Data were normalized to treatment controls and plotted as non-linear sigmoidal dose response curves to determine the effective concentration for 50% reduction in cell viability.

[4] = In vivo biodistribution of 111In-labeled miniproteins by SPECT/CT, HT-1376 xenograft; design: species or system mouse; details: female, athymic nude, mouse, in vivo
Procedure, shortened: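 Mice bearing HT-1376 (Nectin-4-expressing human) xenografts imaged by SPECT/CT after 111In-labeled miniprotein dosing. SPECT reported as activity; per-subject maximum intensity projections scaled in % ID/g at each time point.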

[5] = In vitro metabolic stability in serum/plasma (percent parent remaining, LC-MS); assay type: in vitro ADME; details: mouse
Method: Exemplary miniproteins were spiked into biological matrices at initial concentration between 1-2 μM. Tested matrices were varied by species (mouse, rat, human) and type (plasma, serum, and kidney brush border membrane (kBBM) preparations tested each from 0.625-100 μg/mL protein content). Tested conditions were incubated with miniproteins at 37° C. for 4 h. At collection points of 0, 15, 30, 60, 120, 240 minutes, 50 μL of each condition were quenched by organic solvent (methanol or acetonitrile) or the addition of 4% phosphoric acid solution followed by solid-phase extraction. Fractions of each quenched timepoint were subsequently assayed for parent miniproteins concentration by high resolution LC-MS. Percent-parent-remaining-time plots were constructed from the ratio of each given time collection to the time-zero parent miniprotein. Percent-parent-remaining in mouse serum and plasma for exemplary miniproteins are recorded in TABLE 11.

[6] = Biodistribution of radiolabeled miniprotein conjugates by SPECT/CT, HT-1376-OE xenograft; details: female, mouse, in vivo, iv, Kidneys; for tissue uptake at 4 h: 4 h (% ID/g) Average; for tissue uptake at 22 h: 22 h (% ID/g) Average
Method: 6-8 week old female mice were engrafted through subcutaneous injection with cultured 3.0×10^6 HT-1376-OE cells (1:1—Cells:Matrigel). HT-1376-OE is a model cell line that highly expresses Nectin-4. Fourteen (14) days later, the mice were each dosed with a radiolabeled miniprotein, for example at a dose of ˜350 μCi/3.5 μg miniprotein. SPECT and/or CT imaging of the mice was done at timepoints between 15 min to 24 h after the administration of the injected dose, such as 4 h and 22 h (static scanning). Initial SPECT and/or CT rapid dynamic scanning was done at time points between 15 min and 75 min after the administration of the injected dose. For each miniprotein tested, a group of three mice were used, as summarized below in TABLE 16A.

For “Ac-CEYDEEFFAGLKRLRGGDICYYIKKKFDKVPDLCIEEILDKLGC-OH (disulfide 1-34, 20-44) [Compound C9]”, the Kd [1] was 7.5 nM, the “kd for human Nectin-4” value [1] was 0.02271 s⁻¹ and the Kd [2] was 7.82 nM. For the same substance, the “kd for mouse Nectin-4” value [2] was 0.02134 s⁻¹.
For “C214 ({DOTA-PEG4′}-CEYDEEFFTALKRLRGGDICYYIKKKFDYLPKLCIEEILDNLGC-NH2; disulfide 1-34, 20-44) [Compound C214]”, the “EC50 (microcurie/milliliter) for 225Ac radioconjugates” value [3] was 0.014 microcurie/milliliter.
Work on “{DOTA-PEG4}-CDYDEQFFTALA[Cit]LRGGDICEYIQA[Lys(Me3)]FQYLPGLCIEEILDNLGCS-OH (disulfide 1-34, 20-44 (inferred)) [Compound C260]” yielded a tissue uptake at 4 h [4] of 12.8 %ID/g, a tissue uptake at 24 h [4] of 7.36 %ID/g and a half-life [5] of 11.2 h. For the same substance, the half-life ([5]; plasma) was > 12 h, the tissue uptake at 4 h [6] was 11.6 %ID/g and the tissue uptake at 22 h [6] was 6.92 %ID/g.
For “{DOTA-PEG4}-CEYDEEFFAGLKRLRGGDICYYIKKKFDKVPDLCIEEILDKLGC-OH (disulfide 1-34, 20-44) [Compound C12]”, the “kd for human Nectin-4” value [1] was 0.01697 s⁻¹ and the “kd for mouse Nectin-4” value [2] was 0.02625 s⁻¹.
With “{DOTA-PEG4}-CEYDEEFFAGLKRLRGGDICYYIKKKFDKVPDLCIEEILDKLGC-OH (disulfide 1-34, 20-44) [Compound C91]” the “kd for human Nectin-4” value [1] was 0.02966 s⁻¹ and the “kd for mouse Nectin-4” value [2] was 0.02817 s⁻¹.
For “{DOTA-PEG4}-CEYDEEFFTALARLRGGDICQYIQAKFQYLPGQCIEEILDNLGCS-OH (disulfide 1-34, 20-44) [Compound C244]”, the tissue uptake at 4 h [4] was 27.7 %ID/g, the tissue uptake at 24 h [4] was 15.9 %ID/g and the half-life [5] was > 12 h. For the same substance, the half-life ([5]; plasma) was > 12 h, the tissue uptake at 4 h [6] was 29.5 %ID/g and the tissue uptake at 22 h [6] was 17.8 %ID/g.
In the case of “{DOTA-PEG4}-CEYDEQFFTALKALRGGDICYYIQASFNYLPDLCIEEILDNLGCS-OH (disulfide 1-34, 20-44 (inferred)) [Compound C113]”, the tissue uptake at 4 h ([4]; 111In-labeled miniprotein, SPECT/CT, kidneys, 4 h post-dosing, n=3 mice, read-out: Biodistribution, Kidneys, 4 h (% ID/g) Average) is reported as 87.9 %ID/g, the tissue uptake at 24 h ([4]; 111In-labeled miniprotein, SPECT/CT, kidneys, 24 h post-dosing, n=3 mice, read-out: Biodistribution, Kidneys, 24 h (% ID/g) Average) is reported as 42.7 %ID/g and the “EC50 (microcurie/milliliter) for 225Ac radioconjugates” value [3] is reported as 0.042 microcurie/milliliter.
